{"source": "patent US20090099102A1", "about": "“Ginkgolides in the Treatment and Prevention of Ovarian Cancer” (priority 2005, published 2009)", "key": {"OVCA429 cells [1]": {"system": "OVCA429 cells", "test": "Cell proliferation (MTT) assay, serous cancer cells OVCA429", "assay_type": "cell-based, human", "conditions": "for cell proliferation compared to the control treatments: p<0.0001; for inhibitory pattern in ovarian cancer cells (discussion): cell line not given", "protocol": "(§1) Immortalized normal human ovary epithelial cell (HOSEE6E7) and a serous type ovarian cancer cell lines (OVCA433) previously established in our laboratory (Tsao, et al., Exp. Cell Res. 218:499-507 (1995); Kim, et al., Jama 287:1671-1679 (2002)) were used in this study. Two mucinous ovarian cancer cell lines (RMUG-S and RMUG-L) were purchased from The Japanese Collection of Research Bioresource (Tokyo, Japan). RMUG-L cells were cultured in MCDB105/M199 medium as above, and RMUG-S cells were cultured in F-12 medium with 10% Fetal Bovine Serum and 1% antibiotic as above. Cells were maintained at 37° C. under 5% CO2 and 95% air in a high humidity chamber. Monolayer cells at 60-80% confluence were enzymatically removed using trypsin/EDTA and plated in 96 well flat-bottomed plates at concentration of 5×10^3 per well for HOSE-E6E7 cells, 1×10^3 per well for OVCA429 and RMUG-L, respectively. Treatments were added 24 hours after plating. Ten mM stock solutions of Ginkgo biloba, quercetin, kaempferol, ginkgolide A, and ginkgolide B, were prepared in DMSO and cells were treated with 10, 50 and 100 μM concentrations of each component. Concentration of standard Ginkgo biloba treatment was calibrated according to the fact that, the standard Ginkgo biloba mixture contains about 4-6% of total active terpene lactons, and the estimated average of the molecular weight of the mixture is about 300. An equal volume of DMSO (less than <1% concentration) was used as control treatment.\n(§2) Methods for the cell proliferation and viability assays were adopted from MTT (Mosmann, J. Immunol. Methods 65:55-63 (1983), XTT (Scudiero et al., Cancer Res. 48:4827-4833, (1988)) and MTS (Cory, et al., Cancer Commun. 3: 207-212 (1991)), which developed as WST-1 (Roche Applied Science, Germany). Briefly, the tetrazolium salts are cleaved to formazan by cellular enzymes. An expansion in the number of viable cells results in an increase in the overall activity of mitochondrial dehydrogenases in the sample. This augmentation in enzyme activity leads to an increase in the amount of formazan dye formed, which directly correlates with the number of metabolically active cells in the culture. After 72 hours of treatment, 15 μl of the MTT dye solution was added to each well and the plates were incubated at 37° C. for 4 hours in a humidified chamber. After incubation, 100 μl of the Solubilization/Stop solution was added to each well. One hour after the addition of the solubilization solution, the contents of the wells were mixed and read by the 96-well plate scanning spectrophotometer (μQuant) and quantitative software (KC-junior, Bio-Tek Instruments, Inc.) at an absorbance of 630 nm for quantitative analysis. Data was collected from at least 3 separate experiments, and at least 8 repeats were performed for each individual treatment. The cell proliferation rate was expressed as a percentage of the control, which had been treated with an equivalent volume of DMSO (as 100%).\nLogistic regression analysis was used to calculate the exposure odds ratio to estimate the relative risk (RR) for ovarian cancer associated with the use of any or a particular type of herbal remedy. Adjustment variables included age, study center, oral contraceptive (OC) use, parity, and Jewish ethnic background. Additionally, we adjusted individually for categories of consumption of vitamin A, carotene, tomatoes and tomato sauce and juice, and raw carrots based upon previous work showing the importance of these foods and vitamins on ovarian cancer risk in our data (Cramer, et al., Int. J. Cancer 94:128-134 (2001)). For the data from the cell proliferation assay, linear regression models were applied to analyze mean OD values from the MTT assays across the different concentration treatments, adjusted for individual experiments. We used a partial F test to determine whether mean OD levels varied across the four concentrations (control, 10, 50, 100 μM). […]"}, "HOSE-E6E7 cells [2]": {"system": "HOSE-E6E7 cells", "test": "Cell proliferation (MTT) assay, HOSE-E6E7 cells", "assay_type": "cell-based, human", "conditions": "10, 50 and 100 μM (extract: equivalent of ginkgolides), 72 h", "protocol": "Immortalized normal human ovary epithelial cell (HOSEE6E7) and a serous type ovarian cancer cell lines ([…]) previously established in our laboratory (Tsao, et al., Exp. Cell Res. 218:499-507 (1995); Kim, et al., Jama 287:1671-1679 (2002)) were used in this study. Two mucinous ovarian cancer cell lines (RMUG-S and RMUG-L) were purchased from The Japanese Collection of Research Bioresource (Tokyo, Japan). RMUG-L cells were cultured in MCDB105/M199 medium as above, and RMUG-S cells were cultured in F-12 medium with 10% Fetal Bovine Serum and 1% antibiotic as above. Cells were maintained at 37° C. under 5% CO2 and 95% air in a high humidity chamber. Monolayer cells at 60-80% confluence were enzymatically removed using trypsin/EDTA and plated in 96 well flat-bottomed plates at concentration of 5×10^3 per well for HOSE-E6E7 cells, 1×10^3 per well for OVCA429 and RMUG-L, respectively. Treatments were added 24 hours after plating. […]\nas §2, with “After 72 hours of treatment, 15 μl of the MTT dye solution was added to each well and the plates were incubated at 37° C. for 4 hours in a humidified chamber. After incubation, 100 μl of the Solubilization/Stop solution was added to each well.” left out, “Data was collected from at least 3 separate experiments, and at least 8 repeats were performed for each individual treatment.” left out, “100%). […]” for “100%).”"}, "RMUG-L cells [3]": {"system": "RMUG-L cells", "test": "Cell proliferation (MTT) assay, mucinous cancer cells RMUG-L", "assay_type": "cell-based, human", "conditions": "10, 50 and 100 μM (extract: equivalent of ginkgolides), 72 h", "protocol": "as §1, §2\nLogistic regression analysis was used to calculate the exposure odds ratio to estimate the relative risk (RR) for ovarian cancer associated with the use of any or a particular type of herbal remedy. Adjustment variables included age, study center, oral contraceptive (OC) use, parity, and Jewish ethnic background. […]"}, "OVCA429 cells [4]": {"system": "OVCA429 cells", "test": "Cell cycle analysis (propidium iodide flow cytometry), OVCA429", "assay_type": "cell-based, human", "conditions": "for S-phase DNA contents / G0/G1 phase DNA: OVCA429, 100 μM; for cell cycle effect: serous type cancer cells", "protocol": "(§3) For the cell cycle analysis, ovarian cells were plated in 75 cm^2 flasks and treated with 100 μM of ginkgolide A and B; the control was treated with an equal amount of DMSO. After 24 and 48 hours, cells were harvested by trypsin digestion and followed by PBS washing and spun for 5 min at room temperature at 12,000 rpm. Cells were fixed with 70% ethanol (in PBS buffer) by suspending the cell pellet and incubated at room temperature for 5 minutes or at −20° C. for two days. The fixed cells were washed once with PBS and then treated with RNase A (50 ug/ml) at 37° C. for 30-60 min. After a single washing with PBS to remove RNase A, propidium iodide (25 μg/ml in PBS buffer) was added. Cells were subjected to analysis using a FACS Calibur Flow Cytometer (Becton Dickson, San Jose, Calif.). Each experiment was repeated at least three times and the cell cycle profiles and data were analyzed by ModFit LT software (Verity Software House, Inc., Topsham, Me.)."}, "HOSE-E6E7 cells [5]": {"system": "HOSE-E6E7 cells", "test": "Cell cycle analysis, HOSE-E6E7", "assay_type": "cell-based, human", "conditions": "100 μM, 24 h", "protocol": "as §3"}, "[6]": {"conditions": "10 young healthy volunteers; single oral dose of 80 mg Ginkgo biloba (EGb 761 formula); cited from earlier work"}, "RMUG-L cells [7]": {"system": "RMUG-L cells", "test": "Cell cycle analysis, RMUG-L", "assay_type": "cell-based, human", "conditions": "48 h", "protocol": "as §3"}, "RMUG-S cells": {"system": "RMUG-S cells", "test": "Cell cycle analysis, RMUG-S", "assay_type": "cell-based, human", "conditions": "after treatment", "protocol": "as §3"}, "smooth muscle cell": {"system": "smooth muscle cell", "conditions": "related to G1 to S phase blockage; cited from earlier work"}, "[8]": {"conditions": "48 h, control 43% (ginkgolide B), 36.5% (ginkgolide A)"}, "[9]": {"conditions": "48 h, control 47.9% (ginkgolide B), 50.7% (ginkgolide A)"}}, "note": "Entries after “also recorded” stand apart in the source; their conditions may differ.", "data": [{"smiles": "C[C@@H]1C(=O)O[C@H]2C[C@@]34[C@H]5C[C@@H](C(C)(C)C)[C@]36[C@@H](OC(=O)[C@@H]6O)O[C@@]4(C(=O)O5)[C@]21O", "note": "[ginkgolide A]", "values": [{"measurement": "cell proliferation compared to the control treatments", "setting": "OVCA429 cells [1]; OVCA429, 50 and 100 μM, 72 h", "value": "about 60%"}, {"measurement": "inhibitory pattern in ovarian cancer cells (discussion)", "setting": "OVCA429 cells [1]", "value": "significant inhibitory pattern"}, {"measurement": "effect on cell proliferation (words)", "setting": "HOSE-E6E7 cells [2]", "value": "little effect"}, {"measurement": "effect on cell proliferation (words)", "setting": "RMUG-L cells [3]", "value": "no effect"}, {"measurement": "effect on cell proliferation (words)", "setting": "RMUG-L cells [3]; listed as Ginkgolide A", "value": "little effect"}, {"measurement": "S-phase DNA contents", "setting": "OVCA429 cells [4]; [8]", "value": 10.3, "unit": "%"}, {"measurement": "G0/G1 phase DNA", "setting": "OVCA429 cells [4]; [9]", "value": 86.1, "unit": "%"}, {"measurement": "cell cycle effect", "setting": "OVCA429 cells [4]", "value": "cell cycle blockage at G0/G1 to S phase checking point"}, {"measurement": "effect on DNA content of G0/G1, S and G2/M phases", "setting": "HOSE-E6E7 cells [5]", "value": "neither ginkgolide A nor ginkgolide B (100 μM) showed a significant effect"}, {"measurement": "average concentration measured", "setting": "[6]", "value": 15, "unit": "ng/mL"}]}, {"smiles": "CC1C(=O)OC2C(O)C34C5CC(C(C)(C)C)C36C(OC(=O)C6O)OC4(C(=O)O5)C12O", "note": "(stereo not shown) [ginkgolide B]", "values": [{"measurement": "cell proliferation compared to the control treatments", "setting": "OVCA429 cells [1]; OVCA429, 10, 50 and 100 μM, 72 h", "value": "about 60%"}, {"measurement": "inhibitory pattern in ovarian cancer cells (discussion)", "setting": "OVCA429 cells [1]", "value": "significant inhibitory pattern"}, {"measurement": "effect on cell proliferation (words)", "setting": "HOSE-E6E7 cells [2]", "value": "little effect"}, {"measurement": "effect on cell proliferation (words)", "setting": "RMUG-L cells [3]", "value": "little effect; also recorded: no effect"}, {"measurement": "S-phase DNA contents", "setting": "OVCA429 cells [4]; 24 h, control 43%", "value": 35.8, "unit": "%"}, {"measurement": "G0/G1 phase DNA", "setting": "OVCA429 cells [4]; 24 h, control 47.9%", "value": 51.5, "unit": "%"}, {"measurement": "S-phase DNA contents", "setting": "OVCA429 cells [4]; [8]", "value": 24, "unit": "%"}, {"measurement": "G0/G1 phase DNA", "setting": "OVCA429 cells [4]; [9]", "value": 65.1, "unit": "%"}, {"measurement": "cell cycle effect", "setting": "OVCA429 cells [4]", "value": "cell cycle blockage at G0/G1 to S phase checking point"}, {"measurement": "effect on DNA content of G0/G1, S and G2/M phases", "setting": "HOSE-E6E7 cells [5]", "value": "neither ginkgolide A nor ginkgolide B (100 μM) showed a significant effect"}, {"measurement": "S-phase DNA", "setting": "RMUG-L cells [7]; control 28.7%", "value": 40.9, "unit": "%"}, {"measurement": "G0/G1 phase DNA", "setting": "RMUG-L cells [7]; control 57%", "value": 44, "unit": "%"}, {"measurement": "changes in G0/G1, S-phase and M-phase DNA distribution", "setting": "RMUG-S cells", "value": "no observed changes"}, {"measurement": "average concentration measured", "setting": "[6]", "value": 4, "unit": "ng/mL"}, {"measurement": "inhibition of smooth muscle cell proliferation", "setting": "smooth muscle cell", "value": "inhibit smooth muscle cell proliferation in a concentration dependent manner"}]}, {"smiles": "O=c1c(O)c(-c2ccc(O)cc2)oc2cc(O)cc(O)c12", "note": "[kaempferol, reference compound]", "values": [{"measurement": "effect on cell proliferation (words)", "setting": "OVCA429 cells [1]; OVCA429, 10, 50 and 100 μM (extract: equivalent of ginkgolides), 72 h", "value": "little effect"}, {"measurement": "effect on cell proliferation (words)", "setting": "RMUG-L cells [3]", "value": "little effect"}]}, {"smiles": "O=c1c(O)c(-c2ccc(O)c(O)c2)oc2cc(O)cc(O)c12", "note": "[quercetin, reference compound]", "values": [{"measurement": "effect on cell proliferation, exception to 'little effect'", "setting": "OVCA429 cells [1]; OVCA429, 50 and 100 μM", "value": "OVCA429 with 50 and 100 μM quercetin"}, {"measurement": "inhibitory pattern in ovarian cancer cells (discussion)", "setting": "OVCA429 cells [1]", "value": "significant inhibitory pattern"}, {"measurement": "effect on cell proliferation (words)", "setting": "HOSE-E6E7 cells [2]", "value": "little effect"}, {"measurement": "effect on cell proliferation (words)", "setting": "RMUG-L cells [3]", "value": "little effect"}]}]}
